Reference: patent publication US7737175B2, “Methods and compositions for regulating HDAC4 activity” (Duke University, priority 2007, dated 2010)

How the values were obtained:
HDAC4 [1] = biological target: T1, HDAC4 (Mus musculus, UniProt Q6NZM9); experiment: in vivo siRNA knockdown in mouse tibialis muscle, denervation, RT-PCR of Dach2/MGN/nAChR; parameters: HDAC4 siRNA results in more than 80% reduction in HDAC4; from tissue; host or cells: mouse tibialis anterior muscle, in vivo; details: siRNA electroporated into tibialis, denervated 3 days
Experimental: (§1) Mouse Procedures. Mice were anaesthetized with a Ketamine/Xylazine mixture (25 mg/ml Ketamine, 1 mg/ml Xylazine in 0.9% NaCl; 100 ul used per mouse. Hair was removed from area surrounding muscle. For denervation, sciatic nerve was exposed and ˜[…] piece of nerve was cut and removed. Incision was sutured and mice were allowed to recover. For overexpression electroporation analysis, 25 ug GFP, HDAC4-GFP, or HDAC4-3SA-GFP was used for injection. For siRNA experiments, 500 pmol siRNA oligo was used for injection. DNA or siRNA were directly injected into TA muscles using cemented MicroSyringe (VWR). ECM 830 electroporator (BTX) was used for all electroporations. Tweezertrodes (Model 520) were coated with transmission gel and were placed outside the skin around the muscle belly and pulsed 5 times at 50V, 60 ms duration, with 200 ms interval time. Mice were allowed to recover in their cages. Stealth siRNA duplexed oligos are from Invitrogen. Sequences are; mouse HDAC4: 5′ […] 3′ (SEQ ID NO:3), mouse HDAC5: 5′ […] 3′ (SEQ ID NO:4).
RNA analysis. For RNA analysis, TA muscles were dounce homogenized in 1 ml Tri reagent (MRC) and incubated at 4° C. overnight. 200 ul chloroform was added, and after vigorous shaking, samples were centrifuged at 12000 rpm for 10 min. Top aqueous layer was added to 500 ul isopropanol, mixed well, and centrifuged at 12000 rpm for 10 min. RNA pellet was washed with 70% ethanol, air-dried, and resuspended in DEPC water for RT-PCR analysis. For northern blotting, 10 ug total RNA was run on a 1% formaldehyde RNA gel. Gel was transferred onto Hybond N+ membrane and probed using radiolabeled fragments of HDAC4 or Atrogin-1 cDNA generated from Prime-it kit II (Stratagene). Blots were exposed for 2 hr at −80° C. For RT-PCR analysis, total RNA was DNase treated using DNA-free kit (Ambion), and 1 ug RNA was used for cDNA synthesis reaction using iScript cDNA Synthesis Kit (Biorad). Samples were diluted 1:50 and 5 ul cDNA was used per RT-PCR reaction. Real-time quantitative PCR was performed using iQ SYBER Green Supermix on the iCycler™ iQ Detection System (Biorad). […]

HDAC4 [2] = biological target: T1, HDAC4; experiment: muscle atrophy after surgical denervation of siRNA-electroporated tibialis anterior (fiber size, atrophy genes by RT-PCR); format: in vivo; parameters: HDAC4 siRNA results in more than 80% reduction in HDAC4; from tissue; host or cells: mouse tibialis anterior muscle, in vivo
Experimental: as §1
RNA analysis. For RNA analysis, TA muscles were dounce homogenized in 1 ml Tri reagent (MRC) and incubated at 4° C. overnight. 200 ul chloroform was added, and after vigorous shaking, samples were centrifuged at 12000 rpm for 10 min. Top aqueous layer was added to 500 ul isopropanol, mixed well, and centrifuged at 12000 rpm for 10 min. RNA pellet was washed with 70% ethanol, air-dried, and resuspended in DEPC water for RT-PCR analysis. For northern blotting, 10 ug total RNA was run on a 1% formaldehyde RNA gel. Gel was transferred onto Hybond N+ membrane and probed using radiolabeled fragments of HDAC4 or Atrogin-1 cDNA generated from Prime-it kit II (Stratagene). Blots were exposed for 2 hr at −80° C. For RT-PCR analysis, total RNA was DNase treated using DNA-free kit (Ambion), and 1 ug RNA was used for cDNA synthesis reaction using iScript cDNA Synthesis Kit (Biorad). Samples were diluted 1:50 and 5 ul cDNA was used per RT-PCR reaction. Real-time quantitative PCR was performed using iQ SYBER Green Supermix on the iCycler™ iQ Detection System (Biorad). Sample volume was 20 ul per reaction. Efficiency and specificity of primers were confirmed by standard PCR and DNA electrophoresis. RT-PCR Program on iCycler™ was 95° C. 15 sec, 60° C. 30 sec, 72° C. 30 sec. All real-time PCR values were normalized to either actin or 18S rRNA. RT-PCR primer sequences are as follows: G-actin: forward 5′-[…] 3′ (SEQ ID NO:5), reverse 5′ […] 3′ (SEQ ID NO:6); 18S: forward 5′ […] 3′ (SEQ ID NO:7), reverse 5′ […] 3′ (SEQ ID NO:8); Dach2: forward 5′-[…] 3′ (SEQ ID NO:9), reverse 5′ […] 3′ (SEQ ID NO:10); nAChRα: forward 5′ CGTCTGGTGGCAAAGCT 3′ (SEQ ID NO:11), reverse 5′-CCGCTCTCCATGAAGTT 3′ (SEQ ID NO:12); MGN: forward 5′-[…] […]
To establish a role for HDAC4 in muscle atrophy, scrambled control siRNA or HDAC4-specific siRNA were electroporated into tibialis anterior (TA) followed by denervation. […] The extent of muscle atrophy was then analyzed by measuring muscle fiber size and the induction of atrophy-specific genes, MuRF1 and atrogin 1, two E3 ligases essential for muscle atrophy. […]

HDAC4 [3] = biological target: T1, HDAC4; experiment: PGC-1α and myoglobin expression in tibialis anterior electroporated with HDAC4-siRNA; format: in vivo; parameters: HDAC4 siRNA results in more than 80% reduction in HDAC4; from tissue; host or cells: mouse tibialis anterior muscle, in vivo; details: fast/glycolytic tibialis anterior muscle
Experimental: as §1
RNA analysis. For RNA analysis, TA muscles were dounce homogenized in 1 ml Tri reagent (MRC) and incubated at 4° C. overnight. 200 ul chloroform was added, and after vigorous shaking, samples were centrifuged at 12000 rpm for 10 min. […] Real-time quantitative PCR was performed using iQ SYBER Green Supermix on the iCycler™ iQ Detection System (Biorad). […]

HDAC4 [4] = biological target: T1, HDAC4; details: daily injection

T1 sequence (Q6NZM9 whole entry): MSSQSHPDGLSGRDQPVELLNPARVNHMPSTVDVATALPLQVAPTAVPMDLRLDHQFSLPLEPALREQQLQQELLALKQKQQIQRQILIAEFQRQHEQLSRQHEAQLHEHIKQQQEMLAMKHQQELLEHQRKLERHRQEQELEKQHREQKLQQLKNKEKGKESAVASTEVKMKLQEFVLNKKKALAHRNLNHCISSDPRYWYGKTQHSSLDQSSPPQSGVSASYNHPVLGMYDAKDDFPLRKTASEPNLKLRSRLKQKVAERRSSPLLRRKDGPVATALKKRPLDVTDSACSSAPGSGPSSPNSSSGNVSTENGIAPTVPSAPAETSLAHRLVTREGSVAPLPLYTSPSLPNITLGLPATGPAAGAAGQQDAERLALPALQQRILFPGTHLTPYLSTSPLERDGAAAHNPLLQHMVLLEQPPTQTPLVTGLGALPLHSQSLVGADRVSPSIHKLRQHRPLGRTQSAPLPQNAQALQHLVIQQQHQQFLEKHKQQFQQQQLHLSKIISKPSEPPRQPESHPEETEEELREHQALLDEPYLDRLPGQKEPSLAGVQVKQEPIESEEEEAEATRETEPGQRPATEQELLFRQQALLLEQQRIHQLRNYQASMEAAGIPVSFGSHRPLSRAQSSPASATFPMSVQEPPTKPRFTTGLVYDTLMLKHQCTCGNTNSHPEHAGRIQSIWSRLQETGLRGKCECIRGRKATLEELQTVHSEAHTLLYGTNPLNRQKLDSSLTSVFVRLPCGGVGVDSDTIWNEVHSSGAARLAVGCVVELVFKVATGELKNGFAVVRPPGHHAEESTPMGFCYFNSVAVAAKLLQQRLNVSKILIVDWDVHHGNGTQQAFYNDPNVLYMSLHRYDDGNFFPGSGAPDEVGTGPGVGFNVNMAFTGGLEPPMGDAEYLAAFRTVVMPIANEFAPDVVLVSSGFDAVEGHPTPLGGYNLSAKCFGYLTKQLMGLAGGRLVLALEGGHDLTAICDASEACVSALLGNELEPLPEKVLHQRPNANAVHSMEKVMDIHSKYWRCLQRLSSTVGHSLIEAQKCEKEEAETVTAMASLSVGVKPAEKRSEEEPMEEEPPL

Substance | induction of MGN after denervation (HDAC4 [1]) | induction of nAChR after denervation (HDAC4 [1]) | repression of Dach2 that occurs during denervation (HDAC4 [1]; 7 days after electroporation) | atrogin 1 expression after denervation (HDAC4 [2]; RT-PCR) | induction of MuRF1 by denervation (HDAC4 [2]; RT-PCR) | atrophy (reduction in TA muscle size) after denervation (HDAC4 [2]; denervation for 12 days, versus control siRNA) | reduction in HDAC4 (HDAC4 [2]; siRNA electroporated into tibialis anterior) | size of individual fibers of denervated muscles (HDAC4 [2]; versus fibers that received control siRNA) | PGC-1α expression (HDAC4 [3]) | myoglobin expression (HDAC4 [3]) | level of PGC-1α (HDAC4 [4])
5′ CACCGGAACCUGAACCACUGCAUUU 3′ (SEQ ID NO:3) [HDAC4 siRNA] | dramatically reduced | dramatically reduced | significantly alleviates | modestly affected | significantly inhibited | largely prevented | more than 80% | much larger | elevation | elevation | –
Trichostatin A | – | – | – | – | – | – | – | – | – | – | increase
